This note sets out measurements from patent publication US10611730B2, “Benzimidazolone and benzothiazolone compounds and their use as AMPA receptor modulators” (Janssen Pharmaceutica NV, priority 2015, dated 2020).

Molecules are shown by their SMILES.

This experiment deals with TARP γ8 dependent AMPA receptor (GluA1o-g8 fusion channel) (Homo sapiens (Human), UniProt P42261+Q8WXS5). The experiment in a line: Calcium flux assay (FLIPR), HEK293 cells expressing GRIA1o-CACNG8 fusion. It counts as cell-based. The conditions noted are these: inhibition of calcium flux after 15 μM glutamate, read-out: GluR1-γ8 pIC50 (converted). The source says: This assay was used to test compounds for their ability to inhibit TARP γ8 dependent AMPA receptor activity.
TARP γ8 dependent AMPA receptor (GluA1o-g8 fusion channel), sequence (P42261 other isoform, or with tags, fused parts or gaps): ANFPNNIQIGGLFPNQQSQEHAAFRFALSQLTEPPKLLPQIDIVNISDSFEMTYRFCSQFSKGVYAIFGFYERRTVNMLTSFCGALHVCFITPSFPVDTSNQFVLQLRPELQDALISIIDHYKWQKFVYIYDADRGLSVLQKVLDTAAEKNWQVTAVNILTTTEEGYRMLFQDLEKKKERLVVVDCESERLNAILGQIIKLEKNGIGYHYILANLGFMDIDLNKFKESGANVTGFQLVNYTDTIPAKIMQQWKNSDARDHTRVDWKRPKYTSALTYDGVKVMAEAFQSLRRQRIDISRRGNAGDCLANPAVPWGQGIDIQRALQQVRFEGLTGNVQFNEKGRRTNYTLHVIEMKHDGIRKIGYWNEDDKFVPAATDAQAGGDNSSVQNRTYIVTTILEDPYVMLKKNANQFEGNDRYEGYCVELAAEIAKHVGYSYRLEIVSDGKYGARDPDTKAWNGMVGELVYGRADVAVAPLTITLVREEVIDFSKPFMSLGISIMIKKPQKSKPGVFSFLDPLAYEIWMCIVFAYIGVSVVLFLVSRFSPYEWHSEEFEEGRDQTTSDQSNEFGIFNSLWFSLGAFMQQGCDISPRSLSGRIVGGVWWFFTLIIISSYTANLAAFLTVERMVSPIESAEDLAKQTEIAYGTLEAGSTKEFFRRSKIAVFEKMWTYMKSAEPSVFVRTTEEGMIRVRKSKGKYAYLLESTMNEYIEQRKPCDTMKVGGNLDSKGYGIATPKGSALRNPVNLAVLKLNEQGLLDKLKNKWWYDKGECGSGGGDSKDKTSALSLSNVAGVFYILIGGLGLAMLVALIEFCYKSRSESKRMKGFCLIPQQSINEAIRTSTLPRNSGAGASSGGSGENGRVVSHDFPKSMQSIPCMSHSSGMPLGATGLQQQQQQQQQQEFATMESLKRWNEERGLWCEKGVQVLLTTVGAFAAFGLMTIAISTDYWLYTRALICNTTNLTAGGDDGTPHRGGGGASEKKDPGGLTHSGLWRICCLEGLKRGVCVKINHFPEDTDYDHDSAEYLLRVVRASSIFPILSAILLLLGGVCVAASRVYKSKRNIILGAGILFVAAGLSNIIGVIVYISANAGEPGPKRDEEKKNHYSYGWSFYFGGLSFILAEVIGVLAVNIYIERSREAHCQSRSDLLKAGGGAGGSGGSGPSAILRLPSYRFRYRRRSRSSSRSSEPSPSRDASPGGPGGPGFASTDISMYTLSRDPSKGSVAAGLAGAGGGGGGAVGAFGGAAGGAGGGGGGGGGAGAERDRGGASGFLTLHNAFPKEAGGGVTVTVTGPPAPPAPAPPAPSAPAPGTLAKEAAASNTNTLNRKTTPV
An in vitro assay was used to determine the potency of test compounds as inhibitors of the glutamate response of the channel formed by GluA1o-g8. To ensure a 1:1 stoichiometry of GluA1o and g8 subunits in the expressed channel, a fusion of the cDNAs for GRIA1o and CACNG8 was used. […] A clonal cell line in HEK293 cells stably expressing this construct, with a geneticin selection marker, was generated for use in this assay. Cell expressing the GRIAlo-CACNG8 fusion construct were grown in a monolayer in 96- or 384-well microtiter plates. […] The cells were then loaded with a calcium-sensitive dye (Calcium-5 or Calcium-6, Molecular Devices) and the test compounds at a range of concentrations.
The fluorescence in each well was normalized to the fluorescence of negative and positive control wells. […] The responses to glutamate as functions of the test compound concentrations were fitted to a four-parameter logistic function. The fitted parameter corresponding to the midpoint was taken to be the potency of inhibition of the compound.

On to `O=c1[nH]c2ccc(-c3cccc(-c4nnco4)c3Cl)cc2[nH]1` [Example 190, 5-[2-Chloro-3-(1,3,4-oxadiazol-2-yl)phenyl]-1,3-dihydrobenzimidazol-2-one], for which the IC50 was 2 µM.
For the compound `COc1cccc(OC(C)C)c1-c1ccc2[nH]c(=O)[nH]c2c1` [Example 28, 5-(2-Isopropoxy-6-methoxy-phenyl)-1,3-dihydrobenzimidazol-2-one], the IC50 was 0.0794 µM.
The same measure for `Cc1c(CN2CC3CC(C2)O3)cccc1-c1ccc2[nH]c(=O)[nH]c2c1` [Example 158, 5-[2-Methyl-3-(6-oxa-3-azabicyclo[3;1;1]heptan-3-ylmethyl)phenyl]-1,3-dihydrobenzimidazol-2-one]: 6.31 µM; for `O=c1[nH]c2ccc(-c3c(Cl)cccc3-c3cn[nH]c3)cc2[nH]1` [Example 176, 5-[2-Chloro-6-(1H-pyrazol-4-yl)phenyl]-1,3-dihydrobenzimidazol-2-one]: 2 µM; for `CC(C)(C)COc1cccc(Cl)c1-c1ccc2[nH]c(=O)[nH]c2c1` [Example 98, 5-[2-Chloro-6-(2,2-dimethylpropoxy)phenyl]-1,3-dihydrobenzimidazol-2-one]: 0.0501 µM.
Regarding `CC(C)Oc1ccc(Cl)cc1-c1ccc2[nH]c(=O)[nH]c2c1` [Example 16, 5-(5-Chloro-2-isopropoxy-phenyl)-1,3-dihydrobenzimidazol-2-one], the IC50 is 0.316 µM.
For `N#Cc1cccc(-c2ccc3[nH]c(=O)[nH]c3c2)c1Cl` [Example 68, 2-Chloro-3-(2-oxo-1,3-dihydrobenzimidazol-5-yl)benzonitrile], the IC50 is 0.316 µM.
The same measure for `O=c1[nH]c2ccc(-c3ccccc3Oc3ccccc3)cc2[nH]1` [Example 24, 5-(2-Phenoxyphenyl)-1,3-dihydrobenzimidazol-2-one]: 0.501 µM; for `COc1cccc(OCC(C)(C)C)c1-c1ccc2[nH]c(=O)[nH]c2c1` [Example 104, 5-[2-(2,2-Dimethylpropoxy)-6-methoxy-phenyl]-1,3-dihydrobenzimidazol-2-one]: 0.1 µM; for `COc1cccc(OC)c1-c1ccc2[nH]c(=O)[nH]c2c1` [Example 7, 5-(2,6-Dimethoxyphenyl)-1,3-dihydrobenzimidazol-2-one]: 1.26 µM.
The same measure for `CC1(C)CN(Cc2cccc(-c3ccc4[nH]c(=O)[nH]c4c3)c2Cl)CCO1` [Example 143, 5-[2-Chloro-3-[(2,2-dimethylmorpholin-4-yl)methyl]phenyl]-1,3-dihydrobenzimidazol-2-one]: 0.1 µM; for `O=c1[nH]c2ccc(-c3c(Cl)cccc3-c3ccccc3)cc2[nH]1` [Example 162, 5-(2-Chloro-6-phenyl-phenyl)-1,3-dihydrobenzimidazol-2-one]: 0.02 µM; for `COC(=O)c1ccc(C)c(-c2ccc3[nH]c(=O)[nH]c3c2)c1` [Example 47, Methyl 4-methyl-3-(2-oxo-1,3-dihydrobenzimidazol-5-yl)benzoate]: 0.501 µM.
The result for `O=c1[nH]c2ccc(-c3c(Cl)cccc3-c3cncnc3)cc2[nH]1` [Example 178, 5-(2-Chloro-6-pyrimidin-5-yl-phenyl)-1,3-dihydrobenzimidazol-2-one] reads 3.98 µM.
In the case of `O=c1[nH]c2ccc(-c3c(Cl)cccc3OCC(F)F)cc2[nH]1` [Example 96, 5-[2-Chloro-6-(2,2-difluoroethoxy)phenyl]-1,3-dihydrobenzimidazol-2-one], the IC50 was 0.0631 µM.
The result for `N#CC1(c2cccc(Cl)c2-c2ccc3[nH]c(=O)[nH]c3c2)CCC1` [Example 129, 1-[3-Chloro-2-(2-oxo-1,3-dihydrobenzimidazol-5-yl)phenyl]cyclobutanecarbonitrile] reads 0.794 µM; that for `O=c1[nH]c2ccc(-c3ccccc3OCC3CC3)cc2[nH]1` [Example 13, 5-[2-(Cyclopropylmethoxy)phenyl]-1,3-dihydrobenzimidazol-2-one], 0.398 µM; that for `Cc1c(CN2CC[C@H](O)[C@H](F)C2)cccc1-c1ccc2[nH]c(=O)[nH]c2c1` (stereo in doubt) [Example 159, (3R,4S)-5-[3-[[3-Fluoro-4-hydroxy-1-piperidyl]methyl]-2-methyl-phenyl]-1,3-dihydrobenzimidazol-2-one], 6.31 µM.
For `COC(=O)c1cccc(-c2ccc3[nH]c(=O)[nH]c3c2)c1OC` [Example 48, Methyl 2-methoxy-3-(2-oxo-1,3-dihydrobenzimidazol-5-yl)benzoate], the IC50 is 6.31 µM.
The same measure for `CC(C)Oc1cccc(-c2ccc3[nH]c(=O)[nH]c3c2)c1C#N` [Example 62, 2-Isopropoxy-6-(2-oxo-1,3-dihydrobenzimidazol-5-yl)benzonitrile]: 0.2 µM.
With `O=c1[nH]c2ccc(-c3cccc(OCC(F)F)c3Cl)cc2[nH]1` [Example 112, 5-[2-Chloro-3-(2,2-difluoroethoxy)phenyl]-1,3-dihydrobenzimidazol-2-one], the IC50 was 0.126 µM.
The same measure for `O=c1[nH]c2ccc(-c3c(Cl)cccc3-c3ccc(F)cc3)cc2[nH]1` [Example 163, 5-[2-Chloro-6-(4-fluorophenyl)phenyl]-1,3-dihydrobenzimidazol-2-one]: 0.02 µM; for `O=c1[nH]c2ccc(-c3cccc(CN4CCOCC4)c3Cl)cc2[nH]1` [Example 141, 5-[2-Chloro-3-(morpholinomethyl)phenyl]-1,3-dihydrobenzimidazol-2-one]: 1 µM; for `N#CCc1ccc(Cl)c(Cl)c1-c1ccc2[nH]c(=O)[nH]c2c1` [Example 122, 2-[3,4-Dichloro-2-(2-oxo-1,3-dihydrobenzimidazol-5-yl)phenyl]acetonitrile]: 0.00794 µM.
The same measure for `O=c1[nH]c2ccc(-c3c(Cl)cncc3Cl)cc2[nH]1` [Example 69, 5-(3,5-Dichloro-4-pyridyl)-1,3-dihydrobenzimidazol-2-one]: 0.501 µM; for `Cc1c(-c2ccc3[nH]c(=O)[nH]c3c2)cccc1-c1nnc(C2CC2)o1` [Example 197, 5-[3-(5-Cyclopropyl-1,3,4-oxadiazol-2-yl)-2-methyl-phenyl]-1,3-dihydrobenzimidazol-2-one]: 0.398 µM; for `Cc1c(CN2CCCCC2)cccc1-c1ccc2[nH]c(=O)[nH]c2c1` [Example 147, 5-[2-Methyl-3-(1-piperidylmethyl)phenyl]-1,3-dihydrobenzimidazol-2-one]: 1.58 µM.
The result for `O=c1[nH]c2ccc(-c3c(Cl)cccc3CN3CCOCC3)cc2[nH]1` [Example 145, 5-[2-Chloro-6-(morpholinomethyl)phenyl]-1,3-dihydrobenzimidazol-2-one] reads 1 µM.
`Cc1c(CN2CCCC2)cccc1-c1ccc2[nH]c(=O)[nH]c2c1` [Example 156, 5-[2-Methyl-3-(pyrrolidin-1-ylmethyl)phenyl]-1,3-dihydrobenzimidazol-2-one]: the IC50 is 6.31 µM.
As to `O=c1[nH]c2ccc(-c3c(Cl)ccc(CN4CCOCC4)c3Cl)cc2[nH]1` [Example 139, 5-[2,6-Dichloro-3-(morpholinomethyl)phenyl]-1,3-dihydrobenzimidazol-2-one], the IC50 was 0.251 µM.
The same measure for `C[C@H](Oc1cccc(Cl)c1-c1ccc2[nH]c(=O)[nH]c2c1)C(F)(F)F` (single isomer, unassigned) [Example 120, (S*)-5-[2-Chloro-6-(2,2,2-trifluoro-1-methyl-ethoxy)phenyl]-1,3-dihydrobenzimidazol-2-one]: 0.0794 µM; for `COc1cnccc1-c1cccc(Cl)c1-c1ccc2[nH]c(=O)[nH]c2c1` [Example 171, 5-[2-Chloro-6-(3-methoxy-4-pyridyl)phenyl]-1,3-dihydrobenzimidazol-2-one]: 1 µM; for `COc1cccc(Cl)c1-c1ccc2[nH]c(=O)[nH]c2c1` [Example 20, 5-(2-Chloro-6-methoxy-phenyl)-1,3-dihydrobenzimidazol-2-one]: 0.251 µM.
The result for `N#Cc1c(-c2ccc3[nH]c(=O)[nH]c3c2)cccc1C(F)(F)F` [Example 65, 2-(2-Oxo-1,3-dihydrobenzimidazol-5-yl)-6-(trifluoromethyl)benzonitrile] reads 1.26 µM.
As for `Cc1c(-c2ccc3[nH]c(=O)[nH]c3c2)cccc1-c1noc(C2CC2)n1` [Example 73, 5-[3-(5-Cyclopropyl-1,2,4-oxadiazol-3-yl)-2-methyl-phenyl]-1,3-dihydrobenzimidazol-2-one], the IC50 is 0.0316 µM.
The result for `COc1cccc(OCc2ccccc2)c1-c1ccc2[nH]c(=O)[nH]c2c1` [Example 105, 5-(2-Benzyloxy-6-methoxy-phenyl)-1,3-dihydrobenzimidazol-2-one] reads 0.0398 µM.
The same measure for `COC(=O)c1cccc(C)c1-c1ccc2[nH]c(=O)[nH]c2c1` [Example 45, Methyl 3-methyl-2-(2-oxo-1,3-dihydrobenzimidazol-5-yl)benzoate]: 0.251 µM.
The same measure for `O=c1[nH]c2ccc(-c3cccc(-n4ccnc4)c3Cl)cc2[nH]1` [Example 187, 5-(2-Chloro-3-imidazol-1-yl-phenyl)-1,3-dihydrobenzimidazol-2-one]: 3.16 µM; for `O=c1[nH]c2ccc(-c3c(Cl)cc(Cl)cc3Cl)cc2[nH]1` [Example 51, 5-(2,4,6-Trichlorophenyl)-1,3-dihydrobenzimidazol-2-one]: 0.501 µM; for `Cc1nc(-c2cccc(-c3ccc4[nH]c(=O)sc4c3)c2C)no1` [Example 72, 6-[2-Methyl-3-(5-methyl-1,2,4-oxadiazol-3-yl)phenyl]-3H-1,3-benzothiazol-2-one]: 0.794 µM.
